Test results as given in patent publication US10202368B2, “CXCR7 receptor modulators” (IDORSIA PHARMACEUTICALS LTD, priority 2014, dated 2019).
pEC50: −log10 of the molar value.

The compounds below were run against CXCR7 (Homo sapiens (Human), UniProt P25106) (assay: PathHunter CHO-K1 CXCR7 β-arrestin assay (agonistic activity)). Conditions: β-arrestin recruitment in PathHunter CHO-K1 CXCR7 β-arrestin cells, 90 minutes at 37° C., geometric mean values.
Type: cell-based
Description: The CXCI12 receptor and CXCR7 agonistic activities of the compounds of formula (I) are determined in accordance with the following experimental method.
The assay is using the PathHunter™ CHO-K1 CXCR7 β-arrestin cell line from DiscoverX. The system is based on the Enzyme Fragment Complementation Technology. Two complementing fragments of the β-galactosidase enzyme are expressed within stably transfected cells. The larger portion of β-gal, termed EA for Enzyme Acceptor, is fused to the C-terminus of b-arrestin 2. The smaller fragment, termed ProLink™ tag, is fused to CXCR7 at the C-terminus. Upon activation, b-arrestin is recruited which forces the interaction of ProLink and EA, allowing complementation of the two fragments of b-gal and the formation of a functional enzyme which is capable of hydrolysing the substrate and generating a chemiluminescent signal.
CHO-K1 CXCR7 β-arrestin cells are detached from culture dishes with a cell dissociation buffer (Invitrogen, #13151-014) and collected in growing medium (F12 HAMS 90% (v/v)/FCS 10% (v/v), Penicillin/streptomycin 1% (v/v)). 5000 cells per well (in 20 μl) are seeded in a 384 well plate (white-walled, clear bottom; BD Falcon #353274). The plate is incubated at 37° C./5% CO2 for 24 hours. Medium is then replaced by 20 μl OPTIMEM (Invitrogen #31985) for 3 to 4 hours. Test compounds are dissolved at 10 mM in DMSO and serially diluted in DMSO to 200× of the final concentration for dose response curves. Compounds are then diluted 1:33.3 in HBSS1X. 5 μl/well of HBSS1X/20 mM HEPES/0.2% BSA are added to the assay plate followed by addition of 5 μl/well of diluted compounds. CXCL12 (Peprotech #300-28A) may be used as a reference agonist. The plate is incubated for 90 minutes at 37° C. 12 μl of detection reagent (Path Hunter Detection Kit, DiscoveRx, #93-0001) is transferred to the assay plate and to the plate is incubated for 1 hour at room temperature. Luminescent signal is read in a microplate reader (FLUOstar Optima, bmg). The calculated EC50 values may fluctuate depending on the daily cellular assay performance. Fluctuations of this kind are known to those skilled in the art. Average EC50 values from several measurements are given as geometric mean values.

CXCR7, sequence (P25106 whole entry): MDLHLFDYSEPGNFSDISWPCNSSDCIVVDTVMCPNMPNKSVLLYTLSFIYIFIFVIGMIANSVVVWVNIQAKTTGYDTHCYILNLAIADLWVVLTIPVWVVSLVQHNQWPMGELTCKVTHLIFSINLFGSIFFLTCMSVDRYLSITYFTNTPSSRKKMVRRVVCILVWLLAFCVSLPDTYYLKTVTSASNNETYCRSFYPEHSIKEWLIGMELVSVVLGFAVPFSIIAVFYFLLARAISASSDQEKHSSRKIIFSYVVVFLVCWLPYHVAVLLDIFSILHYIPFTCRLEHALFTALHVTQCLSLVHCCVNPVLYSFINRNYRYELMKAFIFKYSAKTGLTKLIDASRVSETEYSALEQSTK
CXCR7, sequence (P32121 whole entry partner): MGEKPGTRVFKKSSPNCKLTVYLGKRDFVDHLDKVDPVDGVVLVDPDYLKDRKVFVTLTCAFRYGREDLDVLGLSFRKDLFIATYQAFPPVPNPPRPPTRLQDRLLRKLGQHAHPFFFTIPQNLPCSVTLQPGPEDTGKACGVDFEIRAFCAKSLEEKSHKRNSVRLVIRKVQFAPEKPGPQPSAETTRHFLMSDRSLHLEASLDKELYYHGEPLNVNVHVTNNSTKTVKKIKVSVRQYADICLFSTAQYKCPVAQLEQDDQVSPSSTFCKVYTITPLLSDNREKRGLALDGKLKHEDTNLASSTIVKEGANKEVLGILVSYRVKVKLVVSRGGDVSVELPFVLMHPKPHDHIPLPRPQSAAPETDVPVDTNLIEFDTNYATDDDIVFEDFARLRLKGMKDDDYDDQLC

Structure (SMILES)	pEC50
CN(C)CCN(Cc1ccccc1C(F)(F)F)C(=O)CNc1cccc2c1CCN(C(=O)C(F)(F)F)CC2 [Example 26, N-(2-Dimethylamino-ethyl)-2-[3-(2,2,2-trifluoro-acetyl)-2,3,4,5-tetrahydro-1H-benzo[d]azepin-6-ylamino]-N-(2-trifluoromethyl-benzyl)-acetamide]	8.40
CN(C)CCN(Cc1ccccc1C(F)(F)F)C(=O)CNc1cccc2c1CCN(CC1CC1)CC2 [Example 27, 2-(3-Cyclopropylmethyl-2,3,4,5-tetrahydro-1H-benzo[d]azepin-6-ylamino)-N-(2-dimethylamino-ethyl)-N-(2-trifluoromethyl-benzyl)-acetamide]	8.70
CN(C)CCN(Cc1ccccc1C(F)(F)F)C(=O)CNc1cccc2c1CCCN(CC1CC1)C2 [Example 28, 2-(2-Cyclopropylmethyl-2,3,4,5-tetrahydro-1H-benzo[c]azepin-6-ylamino)-N-(2-dimethylamino-ethyl)-N-(2-trifluoromethyl-benzyl)-acetamide]	8.52
CC(C)(C)NCCN(Cc1ccccc1C(F)(F)F)C(=O)CNc1cccc2c1C(=O)N(CC1CC1)CCO2 [Example 29, N-(2-tert-Butylamino-ethyl)-2-(4-cyclopropylmethyl-5-oxo-2,3,4,5-tetrahydro-benzo[f][1,4]oxazepin-6-ylamino)-N-(2-trifluoromethyl-benzyl)-acetamide]	8.52
CN(C)CCN(Cc1cccc(Cl)c1Cl)C(=O)CNc1cccc2c1C(=O)N(CC1CC1)CCO2 [Example 30, 2-(4-Cyclopropylmethyl-5-oxo-2,3,4,5-tetrahydro-benzo[f][1,4]oxazepin-6-ylamino)-N-(2,3-dichloro-benzyl)-N-(2-dimethylamino-ethyl)-acetamide]	8.11
CN(C)CCN(Cc1c(Cl)cccc1Cl)C(=O)CNc1cccc2c1C(=O)N(CC1CC1)CCO2 [Example 31, 2-(4-Cyclopropylmethyl-5-oxo-2,3,4,5-tetrahydro-benzo[f][1,4]oxazepin-6-ylamino)-N-(2,6-dichloro-benzyl)-N-(2-dimethylamino-ethyl)-acetamide]	7.57
CN(C)CCN(Cc1ccccc1Cl)C(=O)CNc1cccc2c1C(=O)N(CC1CC1)CCO2 [Example 32, N-(2-Chloro-benzyl)-2-(4-cyclopropylmethyl-5-oxo-2,3,4,5-tetrahydro-benzo[f][1,4]oxazepin-6-ylamino)-N-(2-dimethylamino-ethyl)-acetamide]	7.82
Cc1cccc(CN(CCN(C)C)C(=O)CNc2cccc3c2C(=O)N(CC2CC2)CCO3)n1 [Example 33, 2-(4-Cyclopropylmethyl-5-oxo-2,3,4,5-tetrahydro-benzo[f][1,4]oxazepin-6-ylamino)-N-(2-dimethylamino-ethyl)-N-(6-methyl-pyridin-2-ylmethyl)-acetamide]	7.62
CC(C)NCCN(Cc1ccccc1C(F)(F)F)C(=O)CNc1cccc2c1C(=O)N(CC1CC1)CCO2 [Example 34, 2-(4-Cyclopropylmethyl-5-oxo-2,3,4,5-tetrahydro-benzo[f][1,4]oxazepin-6-ylamino)-N-(2-isopropylamino-ethyl)-N-(2-trifluoromethyl-benzyl)-acetamide]	8.30
CC(C)N(CCN(Cc1ccccc1C(F)(F)F)C(=O)CNc1cccc2c1C(=O)N(CC1CC1)CCO2)C(=O)OC(C)(C)C [Example 35, {2-[[2-(4-Cyclopropylmethyl-5-oxo-2,3,4,5-tetrahydro-benzo[f][1,4]oxazepin-6-ylamino)-acetyl]-(2-trifluoromethyl-benzyl)-amino]-ethyl}-isopropyl-carbamic acid tert-butyl ester]	6.38
CNCCN(Cc1ccccc1C(F)(F)F)C(=O)CNc1cccc2c1C(=O)N(CC1CC1)CCO2 [Example 36, 2-(4-Cyclopropylmethyl-5-oxo-2,3,4,5-tetrahydro-benzo[f][1,4]oxazepin-6-ylamino)-N-(2-methylamino-ethyl)-N-(2-trifluoromethyl-benzyl)-acetamide]	7.92
CN(CCN(Cc1ccccc1C(F)(F)F)C(=O)CNc1cccc2c1C(=O)N(CC1CC1)CCO2)C(=O)OC(C)(C)C [Example 37, {2-[[2-(4-Cyclopropylmethyl-5-oxo-2,3,4,5-tetrahydro-benzo[f][1,4]oxazepin-6-ylamino)-acetyl]-(2-trifluoromethyl-benzyl)-amino]-ethyl}-methyl-carbamic acid tert-butyl ester]	6.39
CN(C)CCN(Cc1ccccc1C(F)(F)F)C(=O)CNc1cccc2c1C(=O)N(CC1CC1)CCO2 [Example 38, 2-(4-Cyclopropylmethyl-5-oxo-2,3,4,5-tetrahydro-benzo[f][1,4]oxazepin-6-ylamino)-N-(2-dimethylamino-ethyl)-N-(2-trifluoromethyl-benzyl)-acetamide]	8.40
CCN1CCOc2c(NCC(=O)N(CCN(C)C)Cc3ncccc3C)cccc2C1=O [Example 39, N-(2-Dimethylamino-ethyl)-2-(4-ethyl-5-oxo-2,3,4,5-tetrahydro-benzo[f][1,4]oxazepin-9-ylamino)-N-(3-methyl-pyridin-2-ylmethyl)-acetamide]	6.40
CCN1CCOc2c(NCC(=O)N(CCNC(C)(C)C)Cc3ccccc3C(F)(F)F)cccc2C1=O [Example 40, N-(2-tert-Butylamino-ethyl)-2-(4-ethyl-5-oxo-2,3,4,5-tetrahydro-benzo[f][1,4]oxazepin-9-ylamino)-N-(2-trifluoromethyl-benzyl)-acetamide]	8.15
CCN1CCOc2c(NCC(=O)N(CCN(C)C)Cc3ccccc3C(F)(F)F)cccc2C1=O [Example 41, N-(2-Dimethylamino-ethyl)-2-(4-ethyl-5-oxo-2,3,4,5-tetrahydro-benzo[f][1,4]oxazepin-9-ylamino)-N-(2-trifluoromethyl-benzyl)-acetamide]	7.66
CN(C)CCN(Cc1ccccc1C(F)(F)F)C(=O)CNc1cccc2c1N(C)CCN(CC1CC1)C2=O [Example 42, 2-(4-Cyclopropylmethyl-1-methyl-5-oxo-2,3,4,5-tetrahydro-1H-benzo[e][1,4]diazepin-9-ylamino)-N-(2-dimethylamino-ethyl)-N-(2-trifluoromethyl-benzyl)-acetamide]	8.15
CN1CCN(CC2CC2)C(=O)c2cccc(NCC(=O)N(CCNC(C)(C)C)Cc3ccccc3C(F)(F)F)c21 [Example 43, N-(2-tert-Butylamino-ethyl)-2-(4-cyclopropylmethyl-1-methyl-5-oxo-2,3,4,5-tetrahydro-1H-benzo[e][1,4]diazepin-9-ylamino)-N-(2-trifluoromethyl-benzyl)-acetamide]	8.40
Cc1cccnc1CN(CCN(C)C)C(=O)CNc1cccc2c1N(C)CCN(CC1CC1)C2=O [Example 44, 2-(4-Cyclopropylmethyl-1-methyl-5-oxo-2,3,4,5-tetrahydro-1H-benzo[e][1,4]diazepin-9-ylamino)-N-(2-dimethylamino-ethyl)-N-(3-methyl-pyridin-2-ylmethyl)-acetamide]	6.89
CN(C)CCN(Cc1ncccc1Cl)C(=O)CNc1cccc2c1N(C)CCN(CC1CC1)C2=O [Example 45, N-(3-Chloro-pyridin-2-ylmethyl)-2-(4-cyclopropylmethyl-1-methyl-5-oxo-2,3,4,5-tetrahydro-1H-benzo[e][1,4]diazepin-9-ylamino)-N-(2-dimethylamino-ethyl)-acetamide]	7.30
CC(C)NCCN(Cc1ccccc1C(F)(F)F)C(=O)CNc1cccc2c1N(C)CCN(CC1CC1)C2=O [Example 46, 2-(4-Cyclopropylmethyl-1-methyl-5-oxo-2,3,4,5-tetrahydro-1H-benzo[e][1,4]diazepin-9-ylamino)-N-(2-isopropylamino-ethyl)-N-(2-trifluoromethyl-benzyl)-acetamide]	8.30
CCN1CCN(CC)c2c(NCC(=O)N(CCN3CCOCC3)Cc3ncccc3C(F)(F)F)cccc2C1=O [Example 47, 2-(1,4-Diethyl-5-oxo-2,3,4,5-tetrahydro-1H-benzo[e][1,4]diazepin-9-ylamino)-N-(2-morpholin-4-yl-ethyl)-N-(3-trifluoromethyl-pyridin-2-ylmethyl)-acetamide]	6.37
CCN1CCN(CC)c2c(NCC(=O)N(CCN3CCCC3)Cc3ncccc3C(F)(F)F)cccc2C1=O [Example 48, 2-(1,4-Diethyl-5-oxo-2,3,4,5-tetrahydro-1H-benzo[e][1,4]diazepin-9-ylamino)-N-(2-pyrrolidin-1-yl-ethyl)-N-(3-trifluoromethyl-pyridin-2-ylmethyl)-acetamide]	7.33
CN(C)CCN(Cc1ccccc1C(F)(F)F)C(=O)CNc1cccc2c1N(C)CCN(CC1CC1)C2 [Example 49, 2-(4-Cyclopropylmethyl-1-methyl-2,3,4,5-tetrahydro-1H-benzo[e][1,4]diazepin-9-ylamino)-N-(2-dimethylamino-ethyl)-N-(2-trifluoromethyl-benzyl)-acetamide]	8.70
